According to PubChem BioAssay AID1918939 (Molecular Pharmacology Branch, DTP, NCI, 2023):

Tested on: 653999-131-R-J2-PDC complex spheroid viability
Assay: Anticancer human tumor 653999-131-R-J2-PDC patient-derived lung adenocarcinoma cell line growth inhibition
Settings: for IC50: curve of first compound; for viability, T/C: stronger effect = lower value
Method in brief: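 Drug combinations with the LSD1 inhibitor iadademstat tested on tumor cells co-cultured as spheroids with endothelial cells and mesenchymal stem cells. Concentrations descended in half-log increments from clinical Cmax or 10 microM.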

[1] = second compound 0.1 µM, first compound 0.00316 µM
[2] = second compound 0.1 µM, first compound 0.01 µM
[3] = second compound 0.1 µM, first compound 0.0316 µM
[4] = second compound 0.1 µM, first compound 0.1 µM
[5] = second compound 0.316 µM, first compound 0.00316 µM
[6] = second compound 0.316 µM, first compound 0.01 µM
[7] = second compound 0.316 µM, first compound 0.0316 µM
[8] = second compound 0.316 µM, first compound 0.1 µM
[9] = second compound 1 µM, first compound 0.00316 µM
[10] = second compound 1 µM, first compound 0.01 µM
[11] = second compound 1 µM, first compound 0.0316 µM
[12] = second compound 1 µM, first compound 0.1 µM
[13] = second compound 3.16 µM, first compound 0.00316 µM
[14] = second compound 3.16 µM, first compound 0.01 µM
[15] = second compound 3.16 µM, first compound 0.0316 µM
[16] = second compound 3.16 µM, first compound 0.1 µM
[17] = second compound 10 µM, first compound 0.00316 µM
[18] = second compound 10 µM, first compound 0.01 µM
[19] = second compound 10 µM, first compound 0.0316 µM
[20] = second compound 10 µM, first compound 0.1 µM
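Further: spheroids exposed to agents for seven days before readout.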

COc1cc(Nc2ncc3c(n2)-c2ccc(Cl)cc2C(c2c(F)cccc2OC)=NC3)ccc1C(=O)O + NC1CCC(NC2CC2c2ccccc2)CC1
IC50 (second compound 0.1 µM): > 1000 nM
IC50 (second compound 0.316 µM): > 1000 nM
IC50 (second compound 1 µM): > 1000 nM
IC50 (second compound 3.16 µM): > 1000 nM
IC50 (second compound 10 µM): > 1000 nM
viability, T/C [1]: 78.7%
viability, T/C [2]: 89.2%
viability, T/C [3]: 74.2%
viability, T/C [4]: 78.5%
viability, T/C (second compound 0.1 µM, first compound 0.316 µM): 73.7%
viability, T/C (second compound 0.1 µM, first compound 1 µM): 76.1%
viability, T/C [5]: 85.4%
viability, T/C [6]: 72.8%
viability, T/C [7]: 63.9%
viability, T/C [8]: 68.1%
viability, T/C (second compound 0.316 µM, first compound 0.316 µM): 71.3%
viability, T/C (second compound 0.316 µM, first compound 1 µM): 75.6%
viability, T/C [9]: 76.6%
viability, T/C [10]: 84.3%
viability, T/C [11]: 78.6%
viability, T/C [12]: 69.2%
viability, T/C (second compound 1 µM, first compound 0.316 µM): 61.9%
viability, T/C (second compound 1 µM, first compound 1 µM): 74.9%
viability, T/C [13]: 92.2%
viability, T/C [14]: 73.9%
viability, T/C [15]: 79.2%
viability, T/C [16]: 65.6%
viability, T/C (second compound 3.16 µM, first compound 0.316 µM): 79.7%
viability, T/C (second compound 3.16 µM, first compound 1 µM): 72%
viability, T/C [17]: 92.9%
viability, T/C [18]: 81.4%
viability, T/C [19]: 71.7%
viability, T/C [20]: 71.2%
viability, T/C (second compound 10 µM, first compound 0.316 µM): 60.9%
viability, T/C (second compound 10 µM, first compound 1 µM): 79.7%

Nc1ccccc1NC(=O)c1ccc(CNC(=O)OCc2cccnc2)cc1 + NC1CCC(NC2CC2c2ccccc2)CC1
IC50 (second compound 0.1 µM): 349 nM
IC50 (second compound 0.316 µM): 228 nM
IC50 (second compound 1 µM): 394 nM
IC50 (second compound 3.16 µM): 294 nM
IC50 (second compound 10 µM): 301 nM
viability, T/C (second compound 0.1 µM, first compound 0.00949 µM): 68.4%
viability, T/C (second compound 0.1 µM, first compound 0.03 µM): 68.1%
viability, T/C (second compound 0.1 µM, first compound 0.0949 µM): 57.1%
viability, T/C (second compound 0.1 µM, first compound 0.3 µM): 54.3%
viability, T/C (second compound 0.1 µM, first compound 0.949 µM): 35.8%
viability, T/C (second compound 0.1 µM, first compound 3 µM): 9.78%
viability, T/C (second compound 0.316 µM, first compound 0.00949 µM): 70.5%
viability, T/C (second compound 0.316 µM, first compound 0.03 µM): 61.3%
viability, T/C (second compound 0.316 µM, first compound 0.0949 µM): 56.1%
viability, T/C (second compound 0.316 µM, first compound 0.3 µM): 49%
viability, T/C (second compound 0.316 µM, first compound 0.949 µM): 33.2%
viability, T/C (second compound 0.316 µM, first compound 3 µM): 8.88%
viability, T/C (second compound 1 µM, first compound 0.00949 µM): 75.3%
viability, T/C (second compound 1 µM, first compound 0.03 µM): 69.7%
viability, T/C (second compound 1 µM, first compound 0.0949 µM): 65.1%
viability, T/C (second compound 1 µM, first compound 0.3 µM): 52.4%
viability, T/C (second compound 1 µM, first compound 0.949 µM): 38.5%
viability, T/C (second compound 1 µM, first compound 3 µM): 8.55%
viability, T/C (second compound 3.16 µM, first compound 0.00949 µM): 69.6%
viability, T/C (second compound 3.16 µM, first compound 0.03 µM): 77.9%
viability, T/C (second compound 3.16 µM, first compound 0.0949 µM): 57.1%
viability, T/C (second compound 3.16 µM, first compound 0.3 µM): 46.9%
viability, T/C (second compound 3.16 µM, first compound 0.949 µM): 36.3%
viability, T/C (second compound 3.16 µM, first compound 3 µM): 8.4%
viability, T/C (second compound 10 µM, first compound 0.00949 µM): 74.6%
viability, T/C (second compound 10 µM, first compound 0.03 µM): 62%
viability, T/C (second compound 10 µM, first compound 0.0949 µM): 54.6%
viability, T/C (second compound 10 µM, first compound 0.3 µM): 57.4%
viability, T/C (second compound 10 µM, first compound 0.949 µM): 30.8%
viability, T/C (second compound 10 µM, first compound 3 µM): 5.06%

CC(C)CC(NC(=O)CNC(=O)c1cc(Cl)ccc1Cl)B1OC(=O)CC(CC(=O)O)(C(=O)O)O1 (stereo not given) + NC1CC1c1ccc(-c2cccc(O)c2)cc1
IC50 (second compound 0.1 µM): 21.1 nM
IC50 (second compound 0.316 µM): 15.1 nM
IC50 (second compound 1 µM): 16.5 nM
IC50 (second compound 3.16 µM): 14.7 nM
IC50 (second compound 10 µM): 9.33 nM
viability, T/C (second compound 0.1 µM, first compound 0.000316 µM): 88.6%
viability, T/C (second compound 0.1 µM, first compound 0.001 µM): 103%
viability, T/C [1]: 109%
viability, T/C [2]: 73%
viability, T/C [3]: 38.5%
viability, T/C [4]: 19.6%
viability, T/C (second compound 0.316 µM, first compound 0.000316 µM): 97.4%
viability, T/C (second compound 0.316 µM, first compound 0.001 µM): 91.7%
viability, T/C [5]: 117%
viability, T/C [6]: 62.3%
viability, T/C [7]: 38.2%
viability, T/C [8]: 17.5%
viability, T/C (second compound 1 µM, first compound 0.000316 µM): 77.9%
viability, T/C (second compound 1 µM, first compound 0.001 µM): 87%
viability, T/C [9]: 123%
viability, T/C [10]: 68.2%
viability, T/C [11]: 33%
viability, T/C [12]: 20.4%
viability, T/C (second compound 3.16 µM, first compound 0.000316 µM): 92.8%
viability, T/C (second compound 3.16 µM, first compound 0.001 µM): 90.8%
viability, T/C [13]: 116%
viability, T/C [14]: 61.7%
viability, T/C [15]: 38.7%
viability, T/C [16]: 14.7%
viability, T/C (second compound 10 µM, first compound 0.000316 µM): 80%
viability, T/C (second compound 10 µM, first compound 0.001 µM): 84.6%
viability, T/C [17]: 113%
viability, T/C [18]: 47.3%
viability, T/C [19]: 23.9%
viability, T/C [20]: 9.99%
